“Also recorded” adds a separate entry of the source.
Columns and labels:
[1] = tested on: renal cell carcinoma (RCC); settings: cited from earlier work
metastatic melanoma = settings: cited from earlier work
[2] = patients with advanced melanoma; cited from earlier work
advanced melanoma [3] = settings: in vivo; cited from earlier work
advanced melanoma [4] = settings: cited from earlier work
[5] = Phase 1B clinical trial of Tinostamustine in combination with Nivolumab: safety, tolerability, recommended dose; assay type: in vivo, human
Source text: The clinical study relates to an open-label, single-centre, phase-1B clinical trial to determine the safety, tolerability, recommended dose and anti-cancer efficacy of Tinostamustine in combination with the anti-PD-1 monoclonal antibody (mAb), Nivolumab in patients with advanced melanoma receiving standard-of-care treatment. Tinostamustine is a compound having the following structural formula: […]
A total of 17 patients with advanced melanoma were recruited to a Phase IB study to characterise the safety, tolerability, recommended dose and preliminary efficacy in the treatment of cancer of Tinostamustine in combination with the immune checkpoint inhibitor, Nivolumab.
Tinostamustine was administered intravenously. Four patients were administered tinostamustine at a dose of 15 mg/m^2 (referred to as dose level 1—DL1) for each cycle. Thirteen patients were administered with Tinostamustine at a dose of 30 mg/m^2 (referred to as dose level 2—DL2) for each cycle.
The primary endpoint of the study was dose limiting toxicity (DLT) observed during the first 6 weeks of trial treatment. […]

[6] = Myelosuppression on administration of Tinostamustine at the indicated dosage ranges; assay type: in vivo; settings: below 40 mg/m^2 body surface area
Description: More particularly, the dosage ranges of Tinostamustine described herein may preferably avoid Tinostamustine causing cytotoxicity to immune cells. For comparison, the doses at which Tinostamustine are administered in accordance with the present invention are below those normally used to achieve an anti-cancer neoplastic effect (e.g. via inducing cytotoxicity in tumour cells) with Tinostamustine as a monotherapy (typically […]).

[7] = MC38 model: tolerability and body weight; assay type: in vivo, female C57BL/6 mice
Description: After tumour cell inoculation, the animals were checked daily for morbidity and mortality. During routine monitoring, the animals were checked for treatment effects on tumour growth, behaviour such as mobility, food and water consumption, body weight gain/loss (Body weights) were measured twice a week after randomization), eye/hair matting and any other abnormalities. Mortality and observed clinical signs were recorded for individual animals in detail.
Tumour volumes were measured twice a week after randomization in two dimensions using a caliper, and the volume was expressed in mm3 using the formula: “V=(L×W×W)/2, where V was tumour volume, L was tumour length (the longest tumor dimension) and W was tumour width (the longest tumour dimension perpendicular to L). Dosing as well as tumour and body weight measurements were conducted in a Laminar Flow Cabinet. The body weights and tumour volumes were measured by using StudyDirector™ software (version 3.1.399.19).

[8] = tested on: MC38 subcutaneous murine colorectal syngeneic model; experiment: MC38 subcutaneous murine colorectal syngeneic model: tumour burden and survival; assay type: in vivo, female C57BL/6 mice
Description: Specifically, the effects of the combined therapy Tinostamustine and an […] antibody in the treatment of the MC38 subcutaneous murine colorectal syngeneic model in female C57BL/6 mice following 3 dose cycles was assessed. MC38 is a commonly used murine model for colorectal carcinoma.
Six groups of mice were randomly allocated a group, hereafter referred to as Groups 1 to 6, as in Table 3.
Tinostamustine was administered intravenously, specifically by slow intravenous injection at a rate of ˜60 s per mouse. Two groups of mice were administered tinostamustine at a dose of 5 mg/kg once weekly, either as a monotherapy (Group 3) or as a combination therapy (Group 5). […]
The MC38 cells were maintained in vitro with DMEM medium supplemented with 10% fetal bovine serum at 37° C. in an atmosphere of 5% CO2 in air. The cells in exponential growth phase were harvested and quantitated by cell counter before tumour inoculation. […]
Tumour volumes were measured twice a week after randomization in two dimensions using a caliper, and the volume was expressed in mm3 using the formula: “V=(L×W×W)/2, where V was tumour volume, L was tumour length (the longest tumor dimension) and W was tumour width (the longest tumour dimension perpendicular to L). […] The body weights and tumour volumes were measured by using StudyDirector™ software (version 3.1.399.19). […]

Compound | response rate [1] | response rate (metastatic melanoma) | high-grade adverse events [2] | median overall survival (advanced melanoma [3]) | objective response rate (advanced melanoma [4]; first-line) | progression-free survival (advanced melanoma [4]; first-line) | overall survival improved by (advanced melanoma [4]; versus dacarbazine, first-line) | overall survival HR (advanced melanoma [4]; versus dacarbazine, p<0.001) | progression-free survival HR (advanced melanoma [4]; versus dacarbazine, p<0.001) | progression-free survival improved by (advanced melanoma [4]; versus dacarbazine) | safety concerns ([5]; Tinostamustine doses between 10 mg/m^2 and 30 mg/m^2 body surface area) | recommended dose ([5]; in combination with Nivolumab 3 mg/kg) | myelosuppression [6] | tolerability ([7]; 3 weeks of treatment) | body weight ([7]; mean body weight during treatment) | tumour burden / anti-tumour effect ([8]; dose group not specified) | survival of mice ([8]; vs vehicle control)
Ipilimumab: anti-CTLA-4 monoclonal antibody | minimal activity | 15-20% | 28 % of patients |  |  |  |  |  |  |  |  |  |  |  |  |  | 
Nivolumab | ~25% | 43% | 23 % of patients | not reached | 40.0% | 5.1 months | 58% | 0.42 | 0.43 | 57% |  |  |  |  |  |  | 
Cn1c(CCCCCCC(=O)NO)nc2cc(N(CCCl)CCCl)ccc21 [Tinostamustine] |  |  |  |  |  |  |  |  |  |  | without any significant safety concerns | 30 mg/m^2 | no myelosuppression | well-tolerated | no loss of body weight; also recorded: weight gain | has anti-tumour effect | significantly prolonged the survival; also recorded: increases survival
